Results taken from patent publication US20220378777A1, “COMPOSITIONS AND METHODS FOR TREATING ALCOHOL USE DISORDER OR A RELATED CONDITION THEREOF” (priority 2019, published 2022).

Legend:
Wistar rats = assay: Adolescent AR-R17779 exposure, adult operant beer self-administration (acquisition, extinction, relapse); assay type: in vivo, rat
Description: (§1) Statistical Analysis. All statistical analyses followed the procedures/flowchart indicated by Keppel and Zedeck (1986). Briefly, the experiments examining the acquisition of alcohol consumption utilized the dependent measure of average weekly alcohol intake. The overall analyses were mixed factor ANOVAs with between subject factors of drug dose and EtOH exposure history (when applicable) and a within subject factor of Week. The statistical analyses surveying relapse drinking examined the average EtOH intake for the three days prior to deprivation and daily EtOH intake values following re-exposure. Post-hoc comparisons for between subject factors were performed with Tukey's b analyses. The Tukey's b post-hoc comparison is a modified Tukey post-hoc comparison that reduces the prohibitive penalty for unequal sample size. There is a single assumption of ANOVAs that cannot be violated. […] Therefore, within subject variables should not be treated like between subject variables and analyzed with forced ANOVAs and inappropriate post-hoc analyses. Proper within subject post-hoc analyses are t-tests and orthogonal contrasts (Keppel and Zeddeck, 1986). Given the general lack of understanding of orthogonal contrasts, the findings from t-test analyses are being reported. Concerns of Type I error rate inflation is eliminated by the proper reading of Rodgers (1967). Type 1 error rate inflations is Ψi (i=1, . . . , J−1), and not Bonferroni, an improper estimate. Given the effect size of the current data set there is no likelihood of Type 1 error rate inflation for any reported analyses (c.f., Rodgers and Roberts, 2012; Roberts, 2011).
Effects of exposure to the α7 agonist AR-R17779 during early adolescence on adult EtOH consumption (acquisition, maintenance, extinction, craving, and relapse). The current experiment was conducted to generalize the effects of exposure to an α7 NAchR receptor agonist during adolescence on adult alcohol consumption in non-selected (non-genetically predisposed rats). Brief exposure to AR during adolescence in Wistar rats produced similar alterations in adult beer consumption. Male and female Wistar rats were exposed to AR (0, 3, or 10 mg/kg) on PND 29, 30, 33, 35, 36, and 37 (no alcohol exposure during adolescence). On PND 75 rats were allowed to self-administer beer (9% IPA) under operant conditions.

α7 nicotinic receptor = α7 nicotinic receptor (Homo sapiens, UniProt P36544); details: cited from earlier work
[1] = test system: alcohol preferring (P) rats; assay: Exposure to α7 agonist AR-R17779 during early adolescence, adult EtOH consumption (acquisition and relapse drinking); assay type: in vivo, rat; details: for duration of alcohol deprivation effect (ADE): vs baseline intake
Description: (§2) Subjects. The alcohol-preferring (P) rats used in the current experiments were from the standard P stock maintained by the Animal Breeding Core of the Indiana University Alcohol Research Center (IUARC). Animals used in this study were maintained in facilities fully accredited by the Association for the Assessment and Accreditation of Laboratory Animal Care. All research protocols were approved by the IUSM Institutional Animal Care and Use Committee (IUSM IACUC) and were in accordance with the guidelines of the Institutional Care and Use Committee of the National Institute on Drug Abuse, the NIH, and the Guide for the Care and Use of Laboratory Animals (2011).
Effects of exposure to the α7 agonist AR-R17779 during early adolescence on adult EtOH consumption. Adolescent male (n=14) and female (n=13) alcohol preferring (P) rats were exposed to the α7 nicotinic receptor agonist, AR-R17779 ((2S)-2′H-spiro[4-azabicyclo[2.2.2]octane-2,5′-[1,3]oxazolidin]-2′-one) (AR; Tocris) on PND 29, 30, 33, 35, 36, and 37. The doses of AR-R17779 was 0 (saline controls), 3 or 10 mg/kg (all drugs administered i.p.). […] The doses of AR employed are typical for peripheral administered studies and results in observed alterations in specific behaviors. All rats were group housed between PND 26 and 73 (adulthood). Subjects only received treatment with AR_on the days specified.
as §1

P rats = assay: Pretreatment with α7 NAM dehydronorketamine prior to adolescent binge-like alcohol exposure (AIE), adult EtOH consumption; assay type: in vivo, rat; details: for effect on deleterious effects of adolescent alcohol exposure (adult alcohol intake, weeks 1-2): males and females
Description: as §2, §1
Effects of pretreatment with an α7 NAM dehydronorketamine prior to binge-like exposure during adolescence on adult EtOH consumption. There were 5 treatment groups. Adolescent male (n=24) and female (n=26) P rats were used in the experiment. The AIE exposure began on PND 28. Rats were given 4 g/kg alcohol (25% v/v; gavage) every Monday, Tuesday, Thursday and Friday (4 days a week; 3 days with no alcohol exposure) from post-natal day 28-48. Control (CON) groups received an equivalent volume administration of water. In the AIE groups, rats were injected (i.p.) with 0 (saline), 10 or 50 mg/kg of the α7 nicotinic receptor NAM dehydronorketamine (DHNK; Santa Cruz biotechnology) 2 hours prior to AIE exposure. CON groups received (i.p.) injections of saline or 50 mg/kg DHNK 2 hours prior to water gavage exposure. All rats were group housed between post-natal day 48 and 73 (adulthood). Pretreatment and gavage administration occurred during PND 28, 29, 30, 31, 34, 35, 37, 39, 40, 41, 44, 45, 47, and 48. Subjects were not exposed to DHNK any time after PND48.

α3β4 = α3β4 (Homo sapiens, UniProt P30926+P32297); details: read-out: binding to α3β4 IC50; cited from earlier work
female P rats = assay: Pretreatment with α7 NAM SB-277011-A prior to adolescent binge alcohol exposure (ABAE), adult EtOH consumption; assay type: in vivo, rat
Protocol: Effects of exposure to the α7 negative allosteric modulator (NAM) SB-277011-A prior to adolescence binge alcohol exposure on adult EtOH consumption. Currently, there are 3 commercially available α7 NAMs: DHNK, SB-277011-A (SB), and Butaclamol (AY-23,028). SB is also a selective D3 antagonist. Butaclamol is a typical antipsychotic that is also a non-selective dopamine receptor antagonist. Referring now to FIG. 7, the ability of SB to prevent ABAE-induced increases were assessed in adult EtOH consumption. Briefly, female P rats were exposed to the standard ABAE protocol. ABAE and CON rats were injected (i.p.) with 0 (water), 1 or 5 mg/kg SB (Sigma) 2 hours before gavage treatment. […] Statistically, there was a significant ABAE X SB Dose X Day interaction term (F12,244=2.3; p<0.01). Therefore, the data sets indicate that despite having different off-target sites of activation (SB-D3 antagonist), both α7 NAMs prevented the deleterious consequences of ABAE.

[2] = 3 and 10 mg/kg AR during adolescence
[3] = 1 or 5 mg/kg SB i.p. 2 hours before gavage

Chain of α3β4 (P32297 32-505): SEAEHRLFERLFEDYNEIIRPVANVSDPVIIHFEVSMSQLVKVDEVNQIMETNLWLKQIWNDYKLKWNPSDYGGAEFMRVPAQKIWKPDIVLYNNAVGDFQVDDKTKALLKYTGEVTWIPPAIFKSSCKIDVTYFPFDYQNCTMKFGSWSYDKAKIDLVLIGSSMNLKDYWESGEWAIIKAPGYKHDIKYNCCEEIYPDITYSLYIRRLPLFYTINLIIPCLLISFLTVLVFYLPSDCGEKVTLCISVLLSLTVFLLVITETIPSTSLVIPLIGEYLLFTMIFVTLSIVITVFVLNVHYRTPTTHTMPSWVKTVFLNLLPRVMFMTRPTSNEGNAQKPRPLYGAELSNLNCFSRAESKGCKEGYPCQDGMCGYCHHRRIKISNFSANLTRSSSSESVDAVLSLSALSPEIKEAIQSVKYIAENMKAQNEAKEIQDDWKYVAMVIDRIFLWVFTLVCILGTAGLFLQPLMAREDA
Chain of α3β4 (P30926 22-498): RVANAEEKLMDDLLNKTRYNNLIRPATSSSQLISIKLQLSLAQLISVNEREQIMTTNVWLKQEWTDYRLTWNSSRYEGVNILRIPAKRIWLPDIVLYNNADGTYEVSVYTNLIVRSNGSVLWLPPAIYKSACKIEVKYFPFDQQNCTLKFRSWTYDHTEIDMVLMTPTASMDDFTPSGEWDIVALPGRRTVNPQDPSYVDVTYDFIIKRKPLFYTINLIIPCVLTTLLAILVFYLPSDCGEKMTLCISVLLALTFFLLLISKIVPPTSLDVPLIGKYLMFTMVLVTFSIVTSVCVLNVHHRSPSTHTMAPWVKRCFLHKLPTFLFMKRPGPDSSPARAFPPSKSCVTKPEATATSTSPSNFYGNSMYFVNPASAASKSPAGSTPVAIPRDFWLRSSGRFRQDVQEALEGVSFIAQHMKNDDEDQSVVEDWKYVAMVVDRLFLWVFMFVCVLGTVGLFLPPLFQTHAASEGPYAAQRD
Chain of α7 nicotinic receptor (P36544 23-502): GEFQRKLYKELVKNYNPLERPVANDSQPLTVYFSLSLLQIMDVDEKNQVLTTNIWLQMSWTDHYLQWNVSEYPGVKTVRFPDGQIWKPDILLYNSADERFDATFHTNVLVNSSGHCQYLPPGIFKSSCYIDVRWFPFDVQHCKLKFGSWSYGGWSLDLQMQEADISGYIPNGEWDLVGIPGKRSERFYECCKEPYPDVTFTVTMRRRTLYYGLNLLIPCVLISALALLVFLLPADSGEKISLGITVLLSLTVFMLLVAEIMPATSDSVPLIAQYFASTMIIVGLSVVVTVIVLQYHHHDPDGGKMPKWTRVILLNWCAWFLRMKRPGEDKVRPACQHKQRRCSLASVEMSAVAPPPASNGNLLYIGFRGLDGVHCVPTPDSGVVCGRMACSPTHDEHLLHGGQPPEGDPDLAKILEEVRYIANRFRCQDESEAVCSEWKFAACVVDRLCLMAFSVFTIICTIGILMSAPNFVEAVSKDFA

O=C1NC[C@@]2(CN3CCC2CC3)O1 [AR-R17779, (2S)-2′H-spiro[4-azabicyclo[2.2.2]octane-2,5′-[1,3]oxazolidin]-2′-one]
beer self-administration during adulthood (FIG. 4, *) (Wistar rats; [2]): 3 and 10 AR>saline
beer self-administration during adulthood (FIG. 4, +) (Wistar rats; [2]): 10>3>saline
acquisition of alcohol self-administration, sessions 7-14 (Wistar rats; AR 3 or 10 mg/kg during adolescence, beer (9% IPA), operant): acquired alcohol self-administration faster than controls
rate of extinction learning (Wistar rats; adolescent exposure, no alcohol available): retarded the rate of extinction learning
relapse drinking (individual ANOVAs) (Wistar rats; alcohol re-exposure, p values<0.001): enhanced relapse drinking
lever responding, extinction session 3 (Wistar rats; highest dose of AR-R17779): responded more on the lever previously associated with delivery of alcohol than all other groups
alcohol consumed during re-exposure sessions (post-hoc) (Wistar rats; vs saline controls): consumed more alcohol than control rats (saline) during the initial 3 re-exposure sessions
lever responding, extinction sessions 1 and 2 (Wistar rats; vs saline treated rats, Tukey's b): responded more on the lever previously associated with the delivery of alcohol
affinity for receptors other than α7 nicotinic receptor (α7 nicotinic receptor): no or minimal affinity for all other examined receptors
duration of alcohol deprivation effect (ADE) ([1]; female P rats, 3 mg/kg AR during adolescence): 2 days
duration of alcohol deprivation effect (ADE) ([1]; female P rats, 10 mg/kg AR during adolescence): 3 days
adult alcohol intake, 1st week of alcohol access ([1]; female P rats, 10 mg/kg AR i.p. during early adolescence vs saline or 3 mg/kg, Tukey's b): consumed more alcohol than rats administered saline or 3 mg/kg AR during adolescence
relapse EtOH drinking, Day 1 of EtOH re-exposure ([1]; female P rats, 10 mg/kg AR vs 3 mg/kg group): consumed more alcohol than the 3 mg/kg group
relapse EtOH drinking, 2nd re-exposure day ([1]; female P rats, 10 mg/kg AR vs saline): consumed more alcohol than rats administered saline
adult alcohol intake, 2nd week of alcohol access ([1]; female P rats, 3 and 10 mg/kg AR i.p. during early adolescence vs saline, p<0.05): 10 mg/kg>3 mg/kg>saline
relapse EtOH drinking, re-exposure day 3 ([1]; female P rats, 3 and 10 mg/kg AR vs saline): 10 mg/kg>3 mg/kg>Saline
relapse EtOH drinking (FIG. 3, +) ([1]; female and male P rats, 10 mg/kg during adolescence vs saline): consumed more alcohol than saline controls
average alcohol intake in adulthood (FIG. 2, #) ([1]; female and male rats, 3 mg/kg during adolescence): 3 mg/kg>saline
average alcohol intake in adulthood (FIG. 2, *) ([1]; female and male rats, 10 mg/kg during adolescence): 10 mg/kg AR-R17779>3 mg/kg and saline
ADE, EtOH intake vs baseline ([1]; male P rats, 3 mg/kg AR during adolescence, p<0.05): elevated levels of EtOH intake during the 1st re-exposure day compared to baseline intake
ADE, EtOH intake vs baseline ([1]; male P rats, 10 mg/kg AR during adolescence): Evidence of an ADE was detected during re-exposure days 1-3
adult alcohol intake, 1st and 2nd weeks of alcohol access ([1]; male P rats, 10 mg/kg AR i.p. during early adolescence vs saline or 3 mg/kg, p<0.05): consumed more alcohol than rats administered saline or 3 mg/kg AR
relapse EtOH drinking, group differences during re-exposure days 1-4 ([1]; male P rats, AR 0, 3, 10 mg/kg, p>0.083): no significant group differences

NC1(c2ccccc2Cl)CCC=CC1=O (centres unmarked) [DHNK, 5,6-dehydronorketamine]
effect on deleterious effects of adolescent alcohol exposure (adult alcohol intake, weeks 1-2) (P rats; P rats, 10 mg/kg DHNK i.p. 2 hours prior to AIE): blocked the deleterious effects of adolescent alcohol exposure
effect on deleterious effects of adolescent alcohol exposure (adult alcohol intake, weeks 1-2) (P rats; P rats, 50 mg/kg DHNK i.p. 2 hours prior to AIE): blocked the deleterious effects of adolescent alcohol exposure
adult alcohol drinking without adolescent alcohol (CON-50 mg/kg DHNK) (P rats; P rats, 50 mg/kg DHNK i.p. prior to water gavage): did not alter alcohol drinking during adulthood
effect on AIE-enhanced relapse drinking (P rats; P rats, DHNK pretreatment): altered the enhancement in relapse drinking produced by AIE exposure
relapse alcohol drinking vs baseline (P rats; female P rats, AIE-10 mg/kg DHNK, paired t-tests): increase in alcohol consumption (compared to baseline during the 1st re-exposure day)
relapse alcohol drinking vs baseline (P rats; female P rats, ATE-50 mg/kg DHNK, paired t-tests): increase in alcohol consumption during the first three re-exposure days
relapse alcohol drinking vs baseline (P rats; female P rats, CON-50 mg/kg DHNK, paired t-tests): significant increase in alcohol drinking during the 1st re-exposure day
relapse alcohol drinking vs baseline (P rats; male P rats, AIE-10 mg/kg DHNK): increase in drinking during the 1st re-exposure day
relapse alcohol drinking vs baseline (ADE) (P rats; male P rats, AIE-50 mg/kg): did not display an ADE
relapse alcohol drinking vs baseline (ADE) (P rats; male P rats, CON-50 mg/kg): did not display an ADE
effect on AIE-induced increase of adult alcohol consumption (overall) (P rats; male and female P rats, DHNK i.p. 2 hours prior to AIE): blocked the ability of adolescent alcohol exposure to increase alcohol consumption during adulthood
IC50 (α3β4): > 200 µM

N#Cc1ccc2c(c1)CCN(CC[C@H]1CC[C@H](NC(=O)c3ccnc4ccccc34)CC1)C2 [SB-277011-A, N-{trans-4-[2-(6-cyano-3,4-dihydroisoquinolin-2(1H)-yl)ethyl]cyclohexyl}quinoline-4-carboxamide]
relapse EtOH drinking, ABAE vs corresponding CON group (FIG. 8, +) (female P rats; 1 mg/kg SB prior to ABAE): consumed more alcohol than corresponding CON group
adult EtOH consumption (FIG. 7, +) (female P rats; 1 mg/kg vs 5 mg/kg SB): 1 mg/kg>5 mg/kg SB rats
adult EtOH consumption (FIG. 7, #) (female P rats; 5 mg/kg SB vs water-ABAE and 1 mg/kg SB): water-ABAE and 1 mg/kg SB>5 mg/kg SB rats
adult EtOH consumption (FIG. 7, *) (female P rats; 1 and 5 mg/kg SB vs water-ABAE): water-ABAE rats >1 mg and 5 mg/kg SB rats
effect on ABAE-induced enhancement of EtOH consumption during relapse (ADE) (female P rats; [3]): prevented ABAE-induced enhancement of EtOH consumption during relapse (ADE) conditions
effect on ABAE-induced increase in EtOH consumption during acquisition (female P rats; [3]): prevented the ABAE-induced increase in EtOH consumption during acquisition
